{
  "source": "patent US11191773B2",
  "about": "“Methods of treatment for bacterial infections” (President and Fellows of Harvard College, priority 2017, dated 2021)",
  "key": {"[1]": {"molecular_target": "T1, wild-type LptB2FGC complexes (Escherichia coli, UniProt P0A9V1)", "T1 construct": "made in house; host or cells: right-side-out membrane vesicles from E. coli BL-21(λDE3) overexpressing the complex", "T1 sequence (P0AF98 whole entry)": "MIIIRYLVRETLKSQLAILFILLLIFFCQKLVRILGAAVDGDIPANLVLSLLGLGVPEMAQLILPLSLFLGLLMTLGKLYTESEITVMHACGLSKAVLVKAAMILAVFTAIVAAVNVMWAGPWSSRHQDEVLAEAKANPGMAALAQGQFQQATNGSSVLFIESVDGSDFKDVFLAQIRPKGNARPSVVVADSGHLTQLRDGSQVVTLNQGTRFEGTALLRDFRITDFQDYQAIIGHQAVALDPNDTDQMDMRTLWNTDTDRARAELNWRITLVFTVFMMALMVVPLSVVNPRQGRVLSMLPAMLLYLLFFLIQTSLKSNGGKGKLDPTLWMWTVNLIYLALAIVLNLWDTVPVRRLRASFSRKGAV", "T1 sequence (P0ADV9 whole entry, further chain)": "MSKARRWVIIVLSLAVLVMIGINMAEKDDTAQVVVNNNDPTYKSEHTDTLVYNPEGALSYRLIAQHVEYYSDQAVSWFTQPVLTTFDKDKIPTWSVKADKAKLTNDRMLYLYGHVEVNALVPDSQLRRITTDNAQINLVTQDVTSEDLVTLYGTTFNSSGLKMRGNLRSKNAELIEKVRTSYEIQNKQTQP", "T1 sequence (P0ADC6 whole entry, further chain)": "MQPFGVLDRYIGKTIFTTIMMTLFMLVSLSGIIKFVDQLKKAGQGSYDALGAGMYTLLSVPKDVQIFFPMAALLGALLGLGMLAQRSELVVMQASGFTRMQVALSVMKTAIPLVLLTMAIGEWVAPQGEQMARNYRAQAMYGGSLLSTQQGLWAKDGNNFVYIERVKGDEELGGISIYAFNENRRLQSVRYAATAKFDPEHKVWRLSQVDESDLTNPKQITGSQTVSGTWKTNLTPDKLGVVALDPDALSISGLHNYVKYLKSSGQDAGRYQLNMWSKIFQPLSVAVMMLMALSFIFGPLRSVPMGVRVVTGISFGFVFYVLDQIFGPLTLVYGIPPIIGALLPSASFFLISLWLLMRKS", "T1 sequence (P0A9V1 2-241)": "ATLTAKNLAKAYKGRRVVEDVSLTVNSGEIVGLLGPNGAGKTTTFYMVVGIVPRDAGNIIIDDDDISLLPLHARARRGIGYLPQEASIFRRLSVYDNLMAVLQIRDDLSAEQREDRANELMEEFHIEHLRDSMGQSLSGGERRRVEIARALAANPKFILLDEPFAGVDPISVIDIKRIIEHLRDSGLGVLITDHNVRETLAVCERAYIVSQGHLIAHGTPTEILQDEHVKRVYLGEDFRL", "test": "LPS-release assay, right-side-out vesicles to LptA*", "type": "biochemical, E. coli", "protocol": "(§1) FIG. 9A is a schematic drawing showing the assay to monitor LPS release from right-side-out vesicles to LptA* (LptA(I36pBPA)). Vesicles containing overexpressed wild-type or mutant LptB2FGC complexes were incubated with LptA* and ATP at 30° C. to initiate LPS extraction and transport from the vesicles to LptA*. Samples were taken at different time points and UV-irradiated to crosslink LPS to LptA*, and accumulation of LPS-LptA* adducts was detected using LPS immunoblots.\nFIG. 9D is a picture of an immunoblot showing that novobiocin and derivatives with impaired gyrase activities stimulate LPS transport in E. coli in vitro. […] Samples were UV irradiated at 365 nm for 5 minutes and then quenched with 2X SDS/5% β-mercaptoethanol. Samples were immunoblotted.\n(§2) The assay detects via immunoblot LPS that becomes crosslinked to LptA* in the presence of UV light. […] By comparison, vesicles containing LptB2LptFG(ch)C complexes released less LPS over time (FIG. 9B, lanes 5-8). These experiments provide direct evidence that the amino acid changes in LptFG(ch), which were known to affect complex formation with LptB, impair LPS release. […] These compounds also increase LPS release from vesicles containing wild-type LptB2FGC complexes or LptB(R91 S)2FGC complexes (FIG. 17).\nSamples were UV irradiated at 365 nm for 5 minutes and then quenched with 2X SDS/5% β-mercaptoethanol. Samples were immunoblotted.\nThe in vitro LPS-transport experiments in FIGS. 9B, 9C, and 17 were set-up as described in (Okuda et al. Science 2012, 338, 1214-1217) with some modifications. RSO-vesicles (50 μg total protein) were diluted into 100 μL reaction buffer (10% v/v glycerol, 20 mM Tris (pH 8.0), 150 mM NaCl, 5 mM sodium-ATP, 5 mM MgCl2), and incubated on ice with novobiocin, 1-adamantyl-novobiocin, or no compound for 15 minutes (50× compound stocks in water were used for each concentration). […]\n(§3) Immunoblotting was used to assess LptA*-LPS levels in each sample. […] LptA levels were assessed similarly, using rabbit anti-LptA antiserum followed by donkey anti-rabbit horseradish peroxidase conjugate (GE Amersham). […]"}, "IptFG(ch) mutant": {"system": "IptFG(ch) mutant", "test": "Rescue of growth of coupling helix mutant (plating and disk assays)", "type": "cell-based, E. coli", "protocol": "FIG. 8B is a series of pictures of bacterial overnight cultures grown in minimal medium. The cultures were serially diluted ten-fold and spotted onto LB agar plates with and without compounds.\nFIG. 15 is a picture of bacterial lawns grown on plates in the presence of disks containing antibiotics. […] Strains were grown overnight in minimal media and then plated on LB plates. Each disk contained 5 μg compound.\nThe coupling helices in LptFG each contain a strictly-conserved glutamate, and changing both glutamates to alanine (IptFG(ch)) causes a lethal loss of function (FIG. 8B, LB panel). […] Because novobiocin also contacts R91 (FIG. 7C), we speculated that it might rescue growth of IptFG(ch) by masking the charge. […] We conclude that novobiocin suppresses Lpt defects in vivo by interacting with LptB at R91; therefore, novobiocin interacts with LptB in cells in a similar manner to that observed in the crystal structure.\nDisk diffusion assays were performed as described in Sherman et al., Proc. Natl. Acad. Sci. USA 2014, 111, 4982-4987. Premade Sensi-Disc (BD-Beckton, Dickinson and Company) were used for bacitracin 10IU, erythromycin 15 μg, novobiocin 30 μg, and rifampin 5 μg.\nEfficiency of plating assays were performed on indicated media using the method described in Butler et al., J. Bacteriol. 2013, 195, 4639-4649."}, "[2]": {"system": "polymyxin-resistant K. pneumoniae (clinical isolate from Brigham and Women's Hospital)", "type": "cell-based", "settings": "37° C. for 24 h", "experimental": "The effect of novobiocin/polymyxin combination was further assessed in polymyxin-resistant strains using checkerboard microdilution assays. In these assays, polymyxin-resistant strains (E. coli (clinical isolate from Brigham and Women's Hospital); A. baumannii (ATCC: 19606) mutant that is novobiocin and polymyxin-resistant; and K. pneumoniae (clinical isolate from Brigham and Women's Hospital)) were grown at 37° C. for 24 h."}, "[3]": {"system": "K. pneumoniae, A. baumannii, P. aeruginosa, E. coli", "test": "Log(CFU/mL) vs. time curves (FIG. 3)", "type": "cell-based", "settings": "Novobiocin 50-130 μg/mL, Polymyxin B 1.4-2.0 μg/mL", "protocol": "FIGS. 3A-3D are a set of plots of colony forming units/ml (CFU/ml) over time when untreated, or treated with polymyxin B, novobiocin, or a combination of both. FIG. 3A is a growth curve of Klebsiella pneumoniae. FIG. 3B is a growth curve of Acinetobacter baumannii Novo^R. FIG. 3C is a plot of CFU/ml over time of Pseudomonas aeruginosa. FIG. 3D is a growth curve of Escherichia coli.\nLog(CFU/mL) vs. time curves. Overnight cultures were diluted 1:100 and grown at 37° C., 220 rpm until OD600=0.1. This culture was transferred to four sterile 5 mL tubes and treated with polymyxin B, novobiocin, polymyxin B+novobiocin, or no drug and incubated at 37° C., 220 rpm. At each timepoint, 10 μL from each condition was log10 diluted to 10^−7 and subsequently plated on LB Miller agar containing no antibiotic. Time=0 h represents the CFU/mL count immediately after the initial treatment. Y-values of zero indicate fewer than 10,000 CFUs (limit of detection). Strains are identical to those used in FIG. 1. K. pneumoniae: [Novobiocin]=130 μg/mL, [Polymyxin B]=1.4 μg/mL; A. baumannii: [Novobiocin]=100 μg/mL, [Polymyxin B]=2.0 μg/mL; P. aeruginosa: [Novobiocin]=100 μg/mL, [Polymyxin B]=2.0 μg/mL; E. coli: [Novobiocin]=50 μg/mL, [Polymyxin B]=2.0 μg/mL."}, "[4]": {"molecular_target": "T2, LptB2LptFG(ch)C complexes (Escherichia coli, UniProt P0A9V1)", "T2 construct": "made in house; host or cells: right-side-out membrane vesicles from E. coli BL-21(λDE3) overexpressing the complex", "T2 sequence (P0AF98 whole entry E84A)": "as the sequence (P0AF98 whole entry) above, with E84A counted along it", "T2 sequence (P0ADC6 whole entry E88A, further chain)": "as the sequence (P0ADC6 whole entry, further chain) above, with E88A counted along it", "T2 sequence (P0A9V1 2-241)": "as the sequence (P0A9V1 2-241) above", "T2 sequence (P0ADV9 whole entry, further chain)": "as the sequence (P0ADV9 whole entry, further chain) above", "test": "LPS-release assay, right-side-out vesicles to LptA*", "type": "biochemical, E. coli", "settings": "30° C. (FIG. 9C)", "protocol": "as §1, §2\nThe in vitro LPS-transport experiments in FIGS. 9B, 9C, and 17 were set-up as described in (Okuda et al. Science 2012, 338, 1214-1217) with some modifications. […]\nas §3"}},
  "data": [
    {"smiles": "CO[C@@H]1[C@@H](OC(N)=O)[C@@H](O)[C@H](Oc2ccc3c(O)c(NC(=O)c4ccc(O)c(CC=C(C)C)c4)c(=O)oc3c2C)OC1(C)C", "note": "[Novobiocin, novobiocin]", "values": [
      {"measurement": "LPS transport in vitro", "setting": "[1]; overexpressed LptB2FGC vesicles, 30° C. for 1 hour (FIG. 9D, 9E)", "result": "stimulate LPS transport in vitro"},
      {"measurement": "LPS release from vesicles to LptA*", "setting": "[1]; wild-type LptB2FGC or LptB(R91 S)2FGC vesicles (FIG. 17)", "result": "stimulates LPS release"},
      {"measurement": "suppression of lethality of IptFG(ch)", "setting": "IptFG(ch) mutant; disks on LB plates, each disk 5 μg compound (FIG. 15)", "result": "suppressed the lethality of IptFG(ch)"},
      {"measurement": "rescue of growth of IptFG(ch)", "setting": "IptFG(ch) mutant; serial dilutions spotted onto LB agar plates with compound (FIG. 8B)", "result": "enables the IptFG(ch) mutant to grow"},
      {"measurement": "synergy with polymyxin B", "setting": "[2]", "result": "synergizes with polymyxin B"},
      {"measurement": "killing by combination with polymyxin B, CFU/mL over time", "setting": "[3]", "result": "synergy is bactericidal"},
      {"measurement": "LPS release from vesicles to LptA*", "setting": "[4]", "result": "stimulate LPS release from the LptB2LptFG(ch)C vesicles in a concentration dependent manner"}
    ]}
  ]
}
